According to patent US7402575B2, “Methods of treating inflammation” (priority 2003, dated 2008):

Columns and labels:
Format in all cases: cell-based, dog
[1] = system: nitric-oxide guanosine 3′,5′cyclic monophosphate pathway; assay: Effect of NOS, guanylyl cyclase and PKG inhibitors on lysozyme's myocardial depressant effect in right ventricular trabecular preparation; details: for Effect on lysozyme's myocardial depressant effect: muscle incubated with inhibitor about one hour before lysozyme
Description: (§1) The right ventricular trabecular preparation used in this study has previously been described. Briefly, mongrel dogs (3 to 10 kg) were anesthetized with pentobarbital. The hearts were removed, flushed with 50 ml of Krebs-Henseleit solution (KH), and placed in ice-cold KH bubbled with a mixture of 95% O2 and 5% CO2. Three to four thin trabeculae (<1 mm diameter) were obtained from the right ventricle and were tied at each end with 6-O silk thread. Each thin muscle was suspended in a 5 ml vertical constant temperature bath that contained KH. The muscle was stimulated electrically via punctate platinum bipolar electrodes with rectangular pulses (1 ms duration) at an intensity of 50% above threshold delivered at intervals of 2,000 ms. The trabeculae were stretched to optimal length.
The plasma concentration of lysozyme attained in the inventors' sepsis model is approximately 10^−8M, and the 10^−7M to 10^−9M range was used in the experiments described below. Lysozyme was purified from the spleens of nonseptic dogs as previously described. Measurements were obtained at 5 minute intervals.
In one group of experiments, the non-specific nitric oxide synthase inhibitor N^G-monomethyl-L-arginine (L-LNMMA) was used to determine whether it could inhibit the depressant effect of lysozyme. The muscle was incubated with L-NMMA (10^−3M) for approximately one hour after which lysozyme was instilled into the preparation. As a negative control group, ventricular trabeculae were incubated with D-NMMA after which lysozyme was instilled. With the D-isomer, no inhibition of lysozyme's effect would be expected.
In separate experiments, the respective roles of eNOS, nNOS, and iNOS were evaluated in which the objective was to determine which of the NOS isoforms was responsible for the myocardial depression observed with lysozyme. The relatively specific inhibitors for eNOS (L-NIO.2HCl [L-N^5-(1-[Iminoethyl)-ornithine.2HCl], nNOS (N-ω-Propyl-L-arginine [N^5-[Imino(propylamino)methyl]-L-ornithine], and iNOS (1400W.dihydrochloride [N-(3-aminomethyl)benzyl)acetamidine.2HCl] were compared in respective experiments in which a range of concentrations of either NOS inhibitor was used.
In other experiments, the muscle was incubated ODQ (10^−3M) or the PKG inhibitor (Rp-8-Br-cGMP) for one hour. The effect of lysozyme on isometric tension was compared to trabeculae without the respective inhibitors.
The results are expressed as a percent of baseline isometric tension. Statistical analyses included two-way analysis of variance and Student Newman Keuls' multiple comparison test. The results are reported as mean (±SD).

[2] = system: right ventricular trabecular preparation; assay: Effect of the substance itself on isometric tension in right ventricular trabecular preparation
Description: Aliquots of the 10-30 KD plasma fraction (0.05 to 1 ml) were then added to a right ventricular (RV) trabecular preparation to test for the presence of FCS activity. The RV preparation has previously been described (6,7). Briefly, mongrel dogs (3 to 10 kg) were anesthetized with pentobarbital, and their hearts were removed. Three to four thin trabeculae (<1 mm diameter) were obtained from the right ventricle and were suspended in a vertical constant temperature bath (5 ml) that contained Krebs Henseleit (KH) solution. The muscle was stimulated electrically at 0.5 Hz. Aliquots of plasma fractions (from 0.05 to 1 ml) were added to respective organ baths at 5 minute intervals. The changes observed in the pre and septic plasma fractions were expressed relative to tensions found at baseline (i.e. prior to the addition of the sample). An increase in the depressant activity in the septic plasma fraction relative to that found in the presepsis sample was indicative of an increase in FCS.
The effect of purified Lzm-S on myocardial depression was then studied in the ventricular trabecular preparation. In initial experiments, the objective was to compare Lzm-S prepared from septic and nonseptic spleens to see if there was any difference between the two preparations. Although no differences were apparent by SDS-PAGE gel, different isoforms of the enzyme could have developed in sepsis thereby increasing its potential to cause myocardial depression. Aliquots of the septic and nonseptic preparations were added (at 5 minute intervals) to respective organ baths, and the changes in isometric tension were then compared between Lzm-S obtained from spleens of septic and nonseptic animals.
The right ventricular (RV) preparation used in this study has also been described (49,6). Briefly, mongrel dogs (3 to 10 kg) were anesthetized with pentobarbital. The hearts were removed, flushed with 50 ml of Krebs-Henseleit solution (KH), and placed in ice-cold KH bubbled with a mixture of 95% O2 and 5% CO2. […]
After baseline tension was determined, either the lectin or placebo was placed into respective organ baths. […]

lysozyme c (Lzm-S) = biological target: T1, lysozyme c (Lzm-S) (Canis lupus familiaris, UniProt P81709); assay: Inhibition of Lzm-S's myocardial depressant activity (isometric tension) in right ventricular trabecular preparation; details: for Isometric tension following pre-treatment with sugar: sugar 10^−3M added before Lzm-S; for Inhibition of Lzm-S's depressant effect on isometric tension: inhibitor 10^−3M added before Lzm-S, paced 0.5 Hz
T1 construct: Lzm-S was purified in a manner described by Grobler et al (14); from tissue
T1 sequence (P81709 1-130): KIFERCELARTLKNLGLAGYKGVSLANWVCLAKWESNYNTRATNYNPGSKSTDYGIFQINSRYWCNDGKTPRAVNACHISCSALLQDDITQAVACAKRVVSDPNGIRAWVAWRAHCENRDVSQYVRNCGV
Description: In subsequent experiments, the objective was to determine whether pretreatment of Lzm-S with the proteolytic enzyme proteinase-K reduced the extent to which myocardial depression developed in the in vitro preparation (7). Proteinase-K (attached to beaded agarose; Sigma Chemical, St Louis, Mo.) was added to the pure Lzm-S preparation. The effects of proteinase-K treated and nontreated Lzm-S on isometric tension were compared between the samples. Since proteinase-K is a non-specific proteolytic enzyme, a specific competitive inhibitor of lysozyme, TAC (chitotriose) was subsequently examined to determine whether it prevented the depression in isometric tension observed in the in vitro preparation (16,17).
In one set of experiments, it was determined whether TAC prevented the reduction in tension observed with Lzm-S. A dose of 10^−3M TAC (based on preliminary experiments) was added to the organ bath before the addition of Lzm-S. Lzm-S was then added to bring the final concentrations to 10^−10M, 10^−9M, 10^−8M, and 10^−7M in sequential steps. In a related set of experiments, the effect of TAC was studied under a similar protocol in which the ventricular trabecular preparation was paced at 1 Hz instead of 0.5 Hz. The objective was to determine whether the higher frequency altered the inhibitory response of TAC. In a third set of experiments, the sequence of adding TAC and Lzm-S was reversed. Lzm-S (10^−7M) was initially added to the preparation, after which TAC at bath concentrations of 10^−6M, 10^−5M, 10^−4M, 10^−3M were sequentially added. The objective was to determine whether TAC could attenuate the effect of Lzm-S on reducing the isometric response after an initial depression in isometric tension had already been attained.
as §1, with “(RV)” for “trabecular”, “also” for “previously”, “described (49,6).” for “described.”, “a” for “a 5 ml”, “bath (5 ml)” for “bath”, “KH (in mM: NaCl, 118; KCl, 4.7; CaCl2 2.5; MgSO4, 1.2; KH2PO4, 1.4; NaHCO3, 25; and dextrose, 11).” for “KH.”
Inhibitory activities of N-acetylglucosamine (NAG), N,N′ diacetylglucosamine (NAG-NAG: N,N′ diacetylchitobiose), and N,N′,N″,N′″ tetraacetylglucosamine (NAG-NAG-NAG-NAG: N,N′,N″,N′″-tetraacetylchitotetraose) were examined (Sigma Corp Canada, Oakville Ontario). These are structurally similar to TAC, but have a different number of NAG units (17). Two somewhat related sugars were also examined to see if there was potential for blocking the activity of lysozyme. These included D-cellotriose and N-aceytllactosamine. D-cellotriose includes three glucose residues linked by beta (1-4) glycosidic linkages, while N acetyllactosamine includes N-acetylglucosamine and galactose residues linked by beta (1-4) glycosidic linkages (12).
After baseline tension was determined, either the sugar or placebo was placed into respective organ baths. The concentration of the sugar used was 10^−3M based on the inventors' previous experiments with TAC 49), while the concentrations of lysozyme were 10^−9, 10^−8, and 10^−7M, respectively. Measurements were obtained at 5 minute intervals. The changes in isometric tension measured from baseline were compared between the treated and placebo baths. […]

Row | Effect on lysozyme's myocardial depressant effect [1] | Isometric tension following pre-treatment with sugar (lysozyme c (Lzm-S); Lzm-S 10^−7M) | Isometric tension following pre-treatment with sugar (lysozyme c (Lzm-S); Lzm-S 10^−8M) | Isometric tension following pre-treatment with sugar (lysozyme c (Lzm-S); Lzm-S 10^−9M) | Structure (SMILES) | Inhibition of Lzm-S's depressant effect on isometric tension (lysozyme c (Lzm-S)) | other results
1 | no inhibition | – | – | – | CNC(=N)NCCCC(N)C(=O)O [D-NMMA] | – | –
2 | markedly attenuated | – | – | – | CNC(=N)NCCC[C@H](N)C(=O)O [L-NMMA, N^G-monomethyl-L-arginine, reference compound] | – | Effect of the substance by itself on isometric tension [2]: no change in isometric tension

The next lines start with the compound.

Row | Structure (SMILES) | Effect on lysozyme's myocardial depressant effect [1] | Isometric tension following pre-treatment with sugar (lysozyme c (Lzm-S); Lzm-S 10^−7M) | Isometric tension following pre-treatment with sugar (lysozyme c (Lzm-S); Lzm-S 10^−8M) | Isometric tension following pre-treatment with sugar (lysozyme c (Lzm-S); Lzm-S 10^−9M) | Inhibition of Lzm-S's depressant effect on isometric tension (lysozyme c (Lzm-S)) | other results
3 | O=c1c2nc(Br)n(C3OC4COP([O-])(=S)OC4C3O)c2nc2[nH]c(-c3ccccc3)cn12.[Na+] (single isomer, unassigned) [Rp-8-Br-cGMP, guanosine 3′,5′-cyclic monophosphorothioate, β-phenyl-1, N^2-etheno-8-bromo-Pp-isomer, sodium salt] | blocked | – | – | – | – | –
4 | N=C(N)NCCC[C@H](N)C(=O)O [L-arginine] | – | – | – | – | – | Effect on the inhibition by L-NMMA [1]: able to competively overcome the effect of L-NMMA
5 | CC(=O)N[C@H]1C(O)O[C@H](CO)[C@@H](O)[C@@H]1O (stereo partly shown) [N-acetylglucosamine] | – | 44±2 % of baseline | 61±4.5 % of baseline | 85±2 % of baseline | neither N-acetylglucosamine (NAG), N-acetyllactosamine nor cellotriose had inhibitory properties | –
6 | CC(=O)N[C@H]1C(O)O[C@H](CO)[C@@H](O[C@@H]2O[C@H](CO)[C@H](O)[C@H](O)[C@H]2O)[C@@H]1O (stereo partly shown) [N-acetyllactosamine] | – | 48±1 % of baseline | 55±1 % of baseline | 60±0 % of baseline | neither N-acetylglucosamine (NAG), N-acetyllactosamine nor cellotriose had inhibitory properties | –
7 | O=c1onc2cnc3ccccc3n12 [ODQ, 1H-[1,2,4] oxidadiazolo-[4,3-a] quinoxalin-1-one] | blocked | – | – | – | – | –
8 | OCC1OC(OC2C(CO)OC(OC3C(CO)OC(O)C(O)C3O)C(O)C2O)C(O)C(O)C1O [cellotriose, D-cellotriose] | – | 58±17 % of baseline | 79±13 % of baseline | 84±9 % of baseline | neither N-acetylglucosamine (NAG), N-acetyllactosamine nor cellotriose had inhibitory properties | –
9 | CC(=N)NCCC[C@H](N)C(=O)O.Cl.Cl [eNOS] | most potent in the prevention of lysozyme's myocardial depressant effect | – | – | – | – | Concentration of the NOS inhibitor at which lysozyme's depressant effect was prevented [1]: 10^−8 M
10 | CC(=O)N[C@H]1[C@H](O[C@H]2[C@H](O)[C@@H](NC(C)=O)C(O)O[C@@H]2CO)O[C@H](CO)[C@@H](O[C@@H]2O[C@H](CO)[C@@H](O[C@@H]3O[C@H](CO)[C@@H](O)[C@H](O)[C@H]3NC(C)=O)[C@H](O)[C@H]2NC(C)=O)[C@@H]1O (stereo partly shown) [tetraacetylchitotetraose, N,N′,N″,N′″ tetraacetylglucosamine] | – | – | – | – | no inhibitory effect | Inhibition of Lzm-S's depressant effect on isometric tension (lysozyme c (Lzm-S); listed as N,N′,N″,N′″ tetraacetylchitotetraose): no inhibitory effect on lysozyme's depressant activity
